Earlier results as cited in PubChem BioAssay AID1259409 (Chemical Carcinogenesis Research Information System (CCRIS), 2018).

Test system: rodent chemically induced tumor inhibition, incidence and multiplicity
Experiment: CCRIS tumor inhibitor studies

## Cn1c(=O)c2[nH]cnc2n(C)c1=O
Carcinogen: 1,2-DIMETHYLHYDRAZINE, 540-73-8, Dose [Inhibitor]: 0, 600 MG/L IN DRINKING WATER FOR DURATION OF STUDY BEGINNING 7 D PRIOR TO CARCINOGEN TREATMENT (STUDY DURATION: 8 MO), Route [Inhibitor]: ORAL, Species: RAT, Strain/Sex: BD6/MALE, Target Tissue: Type of Lesion: INTESTINE: TUMOR, Dose [Carcinogen]: 20 MG/KG BW 1/WK FOR 20 WK, Promoter: NONE USED
  tumour outcome (control, treated, inhibition, significance): 100%, 100%, 0%, not significant
Carcinogen: 4-(METHYLNITROSAMINO)-1-(3-PYRIDLY)-1-BUTANONE [64091-91-4], Dose [Inhibitor]: 2.5 MG/KG BW 3X/WK FOR 31 WK BEGINNING 1 WK POST LAST CARCINOGEN DOSE (STUDY DURATION: 52 WK), Route [Inhibitor]: SUBCUTANEOUS, Species: HAMSTER, Strain/Sex: SYRIAN/MALE, Target Tissue: Type of Lesion: LUNG: TUMOR, Dose [Carcinogen]: 10 MG/KG BW 3X/WK FOR 20 WK (STUDY DURATION: 52 WK), Promoter: NONE
  tumour outcome (control, treated, inhibition, significance): 12/15 (80.0%), 15/15 (100.0%), -25%, not calculated
Carcinogen: 4-(METHYLNITROSAMINO)-1-(3-PYRIDLY)-1-BUTANONE [64091-91-4], Dose [Inhibitor]: 2.5 MG/KG BW 3X/WK FOR 31 WK BEGINNING 1 WK POST LAST CARCINOGEN DOSE (STUDY DURATION: 52 WK), Route [Inhibitor]: SUBCUTANEOUS, Species: HAMSTER, Strain/Sex: SYRIAN/MALE, Target Tissue: Type of Lesion: NASAL CAVITY: TUMOR, Dose [Carcinogen]: 10 MG/KG BW 3X/WK FOR 20 WK (STUDY DURATION: 52 WK), Promoter: NONE
  tumour outcome (control, treated, inhibition, significance): 4/15 (26.7%), 4/15 (26.7%), 0%, not calculated
Carcinogen: DIETHYLNITROSAMINE, 55-18-5, Dose [Inhibitor]: 0, 600 MG/L IN DRINKING WATER BEGINNING 3 D PRIOR TO FIRST CARCINOGEN DOSE AND CONTINUING TO 14 D POST LAST CARCINOGEN D, Route [Inhibitor]: ORAL, Species: RAT, Strain/Sex: BD6/FEMALE, Target Tissue: Type of Lesion: ESOPHAGUS: TUMOR, Dose [Carcinogen]: 80 MG/KG BW 1/WK FOR 8 WK, Promoter: NONE USED
  tumour outcome (control, treated, inhibition, significance): 15%, 9%, 40%, not significant
Carcinogen: DIETHYLNITROSAMINE, 55-18-5, Dose [Inhibitor]: 0, 600 MG/L IN DRINKING WATER BEGINNING 3 D PRIOR TO FIRST CARCINOGEN DOSE AND CONTINUING TO 14 D POST LAST CARCINOGEN D, Route [Inhibitor]: ORAL, Species: RAT, Strain/Sex: BD6/FEMALE, Target Tissue: Type of Lesion: LIVER: TUMOR, Dose [Carcinogen]: 80 MG/KG BW 1/WK FOR 8 WK, Promoter: NONE USED
  tumour outcome (control, treated, inhibition, significance): 90%, 97%, -8%, not significant
Carcinogen: DIETHYLNITROSAMINE, 55-18-5, Dose [Inhibitor]: 0, 600 MG/L IN DRINKING WATER FOR DURATION OF STUDY BEGINNING 4 D POST CARCINOGEN TREATMENT (STUDY DURATION: 6 MO), Route [Inhibitor]: ORAL, Species: RAT, Strain/Sex: BD6/FEMALE, Target Tissue: Type of Lesion: ESOPHAGUS: TUMOR, Dose [Carcinogen]: 80 MG/KG BW 1/WK FOR 8 WK, Promoter: NONE USED
  tumour outcome (control, treated, inhibition, significance): 15%, 29%, -93%, not significant
Carcinogen: DIETHYLNITROSAMINE, 55-18-5, Dose [Inhibitor]: 0, 600 MG/L IN DRINKING WATER FOR DURATION OF STUDY BEGINNING 4 D POST CARCINOGEN TREATMENT (STUDY DURATION: 6 MO), Route [Inhibitor]: ORAL, Species: RAT, Strain/Sex: BD6/FEMALE, Target Tissue: Type of Lesion: LIVER: TUMOR, Dose [Carcinogen]: 80 MG/KG BW 1/WK FOR 8 WK, Promoter: NONE USED
  tumour outcome (control, treated, inhibition, significance): 90%, 97%, -8%, not significant
Carcinogen: DIETHYLNITROSAMINE, 55-18-5, Dose [Inhibitor]: 0, 600 MG/L IN DRINKING WATER FOR DURATION OF STUDY BEGINNING 7 D PRIOR TO CARCINOGEN TREATMENT (STUDY DURATION: 6 MO), Route [Inhibitor]: ORAL, Species: RAT, Strain/Sex: BD6/FEMALE, Target Tissue: Type of Lesion: ESOPHAGUS: TUMOR, Dose [Carcinogen]: 80 MG/KG BW 1/WK FOR 8 WK, Promoter: NONE USED
  tumour outcome (control, treated, inhibition, significance): 14%, 17%, -21%, not significant
Carcinogen: DIETHYLNITROSAMINE, 55-18-5, Dose [Inhibitor]: 0, 600 MG/L IN DRINKING WATER FOR DURATION OF STUDY BEGINNING 7 D PRIOR TO CARCINOGEN TREATMENT (STUDY DURATION: 6 MO), Route [Inhibitor]: ORAL, Species: RAT, Strain/Sex: BD6/FEMALE, Target Tissue: Type of Lesion: LIVER: TUMOR, Dose [Carcinogen]: 80 MG/KG BW 1/WK FOR 8 WK, Promoter: NONE USED
  tumour outcome (control, treated, inhibition, significance): 100%, 90%, 10%, not significant
Carcinogen: N-ETHYL-N-NITROSOUREA, 759-73-9, Dose [Inhibitor]: 0, 1000 MG/KG IN DIET FOR 12 MO ADMINISTERED TO OFFSPRING OF CARCINOGEN-TREATED MOTHERS (STUDY DURATION: 12 MO), Route [Inhibitor]: ORAL, Species: RAT, Strain/Sex: ALBINO/MALE, FEMALE, Target Tissue: Type of Lesion: BRAIN: TUMOR, Dose [Carcinogen]: 75 MG/KG BW ADMINISTERED INTRAPERITONEALLY TO MOTHERS 21 D POST CONCEPTION, Promoter: NONE USED
  tumour outcome (control, treated, inhibition, significance): 53/63 (84%), 21/41 (51%), 39%, p<0.05
Carcinogen: N-ETHYL-N-NITROSOUREA, 759-73-9, Dose [Inhibitor]: 0, 1000 MG/KG IN DIET FOR 12 MO ADMINISTERED TO OFFSPRING OF CARCINOGEN-TREATED MOTHERS (STUDY DURATION: 12 MO), Route [Inhibitor]: ORAL, Species: RAT, Strain/Sex: ALBINO/MALE, FEMALE, Target Tissue: Type of Lesion: KIDNEY: TUMOR, Dose [Carcinogen]: 75 MG/KG BW ADMINISTERED INTRAPERITONEALLY TO MOTHERS 21 D POST CONCEPTION, Promoter: NONE USED
  tumour outcome (control, treated, inhibition, significance): 23/63 (37%), 6/41 (15%), 59%, p<0.05
Carcinogen: N-ETHYL-N-NITROSOUREA, 759-73-9, Dose [Inhibitor]: 0, 1000 MG/KG IN DIET FOR 12 MO ADMINISTERED TO OFFSPRING OF CARCINOGEN-TREATED MOTHERS (STUDY DURATION: 12 MO), Route [Inhibitor]: ORAL, Species: RAT, Strain/Sex: ALBINO/MALE, FEMALE, Target Tissue: Type of Lesion: PERIPHERAL NERVES: TUMOR, Dose [Carcinogen]: 75 MG/KG BW ADMINISTERED INTRAPERITONEALLY TO MOTHERS 21 D POST CONCEPTION, Promoter: NONE USED
  tumour outcome (control, treated, inhibition, significance): 24/63 (38%), 5/41 (12%), 68%, p<0.05
Carcinogen: N-ETHYL-N-NITROSOUREA, 759-73-9, Dose [Inhibitor]: 0, 1000 MG/KG IN DIET FOR 12 MO ADMINISTERED TO OFFSPRING OF CARCINOGEN-TREATED MOTHERS (STUDY DURATION: 12 MO), Route [Inhibitor]: ORAL, Species: RAT, Strain/Sex: ALBINO/MALE, FEMALE, Target Tissue: Type of Lesion: SPINAL CHORD: TUMOR, Dose [Carcinogen]: 75 MG/KG BW ADMINISTERED INTRAPERITONEALLY TO MOTHERS 21 D POST CONCEPTION, Promoter: NONE USED
  tumour outcome (control, treated, inhibition, significance): 17/63 (27%), 9/41 (22%), 19%, not significant
Carcinogen: URETHANE, 51-79-6, Dose [Inhibitor]: 0.05 UMOL/G BW GIVEN AT 6 HR INTERVALS DURING PERIOD OF 0 TO 36 HR AFTER CARCINOGEN TREATMENT FOLLOWED BY 5 MO OBSERVATI, Route [Inhibitor]: INTRAPERITONEAL, Species: MOUSE, Strain/Sex: ICR/FEMALE, Target Tissue: Type of Lesion: LUNG: PAPILLARY ADENOMA, Dose [Carcinogen]: 0.1 MG/G BW ONCE, Promoter: NONE USED
  tumour outcome (control, treated, inhibition, significance): 31/59 (53%), 25/43 (58%), -9%, not significant
